Test results: US7560466B2, “Methods of treating or preventing autoimmune diseases with 2,4-pyrimidinediamine compounds” (Rigel Pharmaceuticals, Inc., priority 2003, dated 2009)
Read-outs that look alike come from different tables or passages of the source. Blank lines part the entries; values can stand above or below the compound they belong to.

Columns and labels:
Syk kinase = target: T1, Syk kinase (Homo sapiens, UniProt P43405); test: Syk kinase biochemical fluorescence polarization assay; conditions: isolated Syk kinase, 11pt, read-out: fp_syk, 11pt
T1 construct: purchased Upstate, Lake Placid N.Y
Experimental: Many of the 2,4-pyrimidinediamine compounds were tested for the ability to inhibit Syk kinase catalyzed phosphorylation of a peptide substrate in a biochemical fluorescenced polarization assay with isolated Syk kinase. In this experiment, Compounds were diluted to 1% DMSO in kinase buffer (20 mM HEPES, pH 7.4, 5 mM MgCl2, 2 mM MnCl2, 1 mM DTT, 0.1 mg/mL acetylated Bovine Gamma Globulin). Compound in 1% DMSO (0.2% DMSO final) was mixed with ATP/substrate solution at room temperature. Syk kinase (Upstate, Lake Placid N.Y.) was added to a final reaction volume of 20 uL, and the reaction was incubated for 30 minutes at room temperature. […] EDTA (10 mM final)/anti-phosphotyrosine antibody (1× final)/fluorescent phosphopeptide tracer (0.5× final) was added in FP Dilution Buffer to stop the reaction for a total volume of 40 uL according to manufacturer's instructions (PanVera Corporation) The plate was incubated for 30 minutes in the dark at room temperature. Plates were read on a Polarion fluorescence polarization plate reader (Tecan). Data were converted to amount of phosphopeptide present using a calibration curve generated by competition with the phosphopeptide competitor provided in the Tyrosine Kinase Assay Kit, Green (PanVera Corporation).
In Tabe 1, all reported values are IC50s (in μM).

[1] = Plasma concentration in RPA reaction study (satellite / exposure); format: in vivo, mouse; conditions: for concentration at 5 h: pretreatment 1 hr; for Exposure = Pretreatment Time + 4 hours Plasma Concentration ± SEM / concentration at 4.5 h: pretreatment 0.5 hrs
Experimental: Pretreatment time, in which the test compounds are administered prior to Ab/Ag challenge, depends on the pharmacokinetic (PK) properties of each individual compound. Four hours after induction of Arthus reaction, mice are euthanized, and tissues are harvested for assessment of edema.
All compounds tested were administered by the oral route.

[2] = system: cultured human mast cells (CHMC), ionomycin-induced degranulation; test: CHMC low cell density ionomycin activation: tryptase assay; format: cell-based; conditions: Homo sapiens, Mast cell, low cell density CHMC, ionomycin activation (2 μM final), 3pt, read-out: LD Tryptase, CHMC, Iono, 3pt
[3] = system: cultured human mast cells (CHMC), IgE-induced degranulation; test: CHMC low cell density IgE activation: tryptase assay; format: cell-based; conditions: Homo sapiens, Mast cell, low cell density CHMC
Procedure, shortened: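 Tryptase release read fluorogenically (30 min, room temperature) from supernatants of anti-IgE-challenged cultured human mucosal mast cells derived from umbilical cord CD34+ cells, at low density of 1000–1500 cells/well.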

[4] = C57BL/6, mouse, plasma, 5 mg/kg oral, read-out: Exposure = Pretreatment Time + 4 hours Plasma Concentration ± SEM

IC50 (Syk kinase): < 10 µM
concentration at 5.5 h ([1]; C57BL/6, mouse, plasma, 100 mg/kg oral, 90 minutes pretreatment, read-out: Exposure = Pretreatment Time + 4 hours Plasma Concentration ± SEM): 44.2 ± 8.9 ng/mL
concentration at 90 min ([1]; C57BL/6, mouse, plasma, 100 mg/kg oral, 90 minutes pretreatment, read-out: Satellite: At time of challenge Plasma Concentration ± SEM): 78.6 ± 26.4 ng/mL
SMILES: COc1c(C)cc(Nc2ncc(F)c(Nc3ccc4c(c3)NC(=O)C(C)(C)O4)n2)cc1Cl [Compound 994]

IC50 (Syk kinase): < 10 µM
SMILES: COc1cc(Nc2ncc(F)c(Nc3ccc4c(c3)NC(=O)C(C)(C)S4(=O)=O)n2)cc(OC)c1OC [Compound 269]

The next lines start with the compound.

SMILES: Cn1c(N2CCOCC2)nc2cc(Nc3ncc(F)c(Nc4ccc5c(c4)NC(=O)C(C)(C)O5)n3)ccc21 [Compound 944, N4-(2,2-Dimethyl-3-oxo-4H-benz[1,4]oxazin-6-yl)-5-fluoro-N2-[1-methyl-2-(4-morpholino)benzimidazol-5-yl]-2,4-pyrimidinediamine]
IC50 (Syk kinase): < 10 µM
concentration at 5 h ([1]; C57BL/6, mouse, plasma, 2 mg/kg oral, read-out: Exposure = Pretreatment Time + 4 hours Plasma Concentration ± SEM): 4.3 ± 4.2 ng/mL
concentration at 5 h [1, 4]: 3.5 ± 5.3 ng/mL
concentration at 5 h ([1]; C57BL/6, mouse, plasma, 15 mg/kg oral, read-out: Exposure = Pretreatment Time + 4 hours Plasma Concentration ± SEM): 29.7 ± 25.9 ng/mL

SMILES: COC(=O)CNC(=O)c1ccc(Nc2ncc(F)c(Nc3ccc4c(c3)NC(=O)C(C)(C)O4)n2)cc1 [Compound 1286]
IC50 (Syk kinase; 4 uM ATP): < 10 µM
IC50 [2]: > 10 µM
IC50 ([3]; 3pt, read-out: LD Tryptase, CHMC, IgE, 3pt): < 10 µM
IC50 ([3]; 8pt, read-out: LD Tryptase, CHMC, IgE, 8pt): < 10 µM

SMILES: COc1cc(Nc2ncc(F)c(Nc3ccc4c(n3)NC(=O)C(C)(C)O4)n2)cc(OC)c1OC [Compound 1007, N4-(2,2-Dimethyl-3-oxo-4H-5-pyrid[1,4]oxazin-6-yl)-5-fluoro-N2-(3,4,5-trimethoxyphenyl)-2,4-pyrimidinediamine]
Exposure = Pretreatment Time + 4 hours Plasma Concentration ± SEM ([1]; 0.1 mg/kg oral): BLQ
Exposure = Pretreatment Time + 4 hours Plasma Concentration ± SEM ([1]; 0.5 mg/kg oral): BLQ
concentration at 4.5 h ([1]; C57BL/6, mouse, plasma, 1 mg/kg oral, read-out: Exposure = Pretreatment Time + 4 hours Plasma Concentration ± SEM): 2.3 ± 0.9 ng/mL
concentration at 4.5 h [1, 4]: 19.8 ± 15.7 ng/mL

SMILES: CC1(C)Oc2ccc(Nc3nc(Nc4ccc(-c5ncco5)cc4)ncc3F)cc2NC1=O [Compound 1011]
IC50 (Syk kinase): < 10 µM
